What was measured:
corophium volutator = assay: Sediment reworker toxicity, Part B of the OSPAR Protocols; assay type: in vivo; details: amount required to kill or incapacitate half the test population
Description: (§1) According to still other embodiments described herein, a disulfonate salt of 2,4-pentanedione is provided. According to one such embodiment, the salt comprises 2,4-pentanedione-1,5-sodium disulfonate. According to another such embodiment, a disulfonate salt of 2,4-pentanedione has an environmentally acceptable toxicity. As used herein, the term “environmentally acceptable toxicity” means that, when tested according to procedures that are the same as or equivalent to those set forth by the OSPAR Guidelines for Completing the Harmonised Offshore Chemical Notification Format (HOCNF) (References number: 2003-1) that were in effect on Dec. 31, 2004, the salt is determined to have a toxicity of greater than about 10,000 mg/L for an algae (skeletonema costatum), a crustacean (acartia tonsa), a fish (scopthalmus) and a sediment reworker (corophium volutator). […]
(§2) In this Example 3, the toxicity results for the skeletonema costatum were determined according to ISO (International Organization for Standardization) 10253, the protocol for which is known to those of ordinary skill in the art, and is also the protocol required under the above-referenced HOCNF Guidelines. The toxicity results for the acartia tonsa were determined according to ISO 14669, the protocol for which is known to those of ordinary skill in the art. […]

acartia tonsa = assay: Crustacean toxicity, ISO 14669; assay type: in vivo; details: amount required to kill or incapacitate half the test population
Description: as §1, §2

[1] = Solubility of salt compared to free acid (methanol rinse); assay type: physicochemical
Description: The neutralized product was then rinsed several times with methanol to remove by-product acids, or any salts formed therefrom, while leaving the 2,4-pentanedione-1,5-sodium disulfonate primarily undissolved. […] The rinsed product was dried in a vacuum oven and filtered through a 300 mesh screen to afford a flowing pale orange/red powder. The resulting powder was 2,4-pentanedione-1,5-sodium disulfonate.

scopthalmus = assay: Fish toxicity, Part B of the OSPAR Protocols; assay type: in vivo; details: amount required to kill or incapacitate half the test population
Description: as §1, §2

skeletonema costatum = assay: Algae toxicity, ISO 10253 (HOCNF); assay type: in vivo; details: amount required to kill or incapacitate half the test population
Description: as §1, §2

With `O=C(CC(=O)CS(=O)(=O)[O-])CS(=O)(=O)[O-].[Na+].[Na+]` [2,4-pentanedione-1,5-sodium disulfonate] the toxicity (corophium volutator) was “greater than 10,000 mg/L”, the toxicity (acartia tonsa) was “greater than 10,000 mg/L” and the “solubility compared to the 2,4-pentanedione-1,5-disulfonic free acid” value [1] was “significantly less soluble”. The toxicity (scopthalmus) was “greater than 10,000 mg/L” and the toxicity (skeletonema costatum) was “greater than 10,000 mg/L”.

Source: patent US7258738B2, “Cementing compositions including salts” (Halliburton Energy Services, Inc., priority 2005, dated 2007)
